Assay results as given in US7605272B2, “IGF-1R inhibitor” (Kyowa Hakko Kirin Co., Ltd., priority 2005, dated 2009).
Counter-ions that a name gives are not always drawn.

What follows are molecules tested against T1, IGF-1R (Homo sapiens, UniProt P08069) (assay: IGF-1R inhibitory activity (kinase reaction, time-resolved fluoroimmunoassay)). Conditions: IGF-1R active recombinant enzyme, test compound 10 μmol/L.
T1 construct: purchased Upstate Co. 14-465
T1 sequence (P08069 959-1367 limits assumed): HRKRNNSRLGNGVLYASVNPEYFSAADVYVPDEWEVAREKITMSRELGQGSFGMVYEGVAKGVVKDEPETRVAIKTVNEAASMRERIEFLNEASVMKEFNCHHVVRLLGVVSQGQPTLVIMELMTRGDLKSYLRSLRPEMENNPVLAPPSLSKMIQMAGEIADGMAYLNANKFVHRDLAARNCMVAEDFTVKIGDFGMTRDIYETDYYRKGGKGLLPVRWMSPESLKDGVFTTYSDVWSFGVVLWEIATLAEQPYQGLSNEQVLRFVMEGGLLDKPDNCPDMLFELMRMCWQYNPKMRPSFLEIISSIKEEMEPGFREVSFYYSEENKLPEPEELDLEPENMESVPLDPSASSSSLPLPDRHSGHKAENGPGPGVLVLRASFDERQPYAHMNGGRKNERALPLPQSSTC
Type: biochemical
Protocol: The IGF-1R inhibitory activity was measured in the following manner.
As IGF-1R, active recombinant enzyme (Catalog No. 14-465) purchased from Upstate Co., was used. To 96 well plate (FIA-PLATE BLACK 96 well FALT-BOTTOM HIGH BINDING, Greiner Bio-one, Catalog No. 655077) coated with NeutroAvidin (Pierce, Catalog No. 31000), biotinylated polyglutamic acid-tyrosine peptide (Nihon Schering K.K., Catalog No. 61GT0BAA) was immobilized and then blocked with 0.25% gelatin to be used as a plate for measuring the kinase reaction. Separately was prepared a solution containing at final concentrations, IGF-1R (200 μg/L), Tris.HCl(pH 7.5)(20 mmol/L), Na3VO4(0.1 mmol/L), MgCl2(1 mmol/L), MnCl2(10 mmol/L), ATP(10 mmol/L), 2-mercaptoethanol (0.04%), BSA(Bovine Serum Albumin) (0.1%), DMSO(0.1%), test compound (10 μmol/L). The solution (each 50 μL) was added to the well of the plate for measuring the kinase reaction and then, enzyme reaction was performed for 30 minutes at 24° C. The plate was washed with TBS-T [10 mmol/L Tris Cl (pH 7.5), 150 mmol/L NaCl, 0.05% Tween 20 (Bio-Rad, Catalog No. 170-6531)] 4 times, then reacted with europium-labeled anti-phosphotyrosine antibody, further washed with TBS-T 4 times and then, measured with time-resolved fluoroimmunoassay (excitation wavelength 340 nm, measuring wavelength 615 nm). The value of a well to which the test compound had not been added was considered as 100% and that of a well where the enzyme and the test compound had not been added was considered as 0%. The relative activity (%) of the well which was added with enzyme and the test compound was measured and by subtracting the calculated value from 100, IGF-1R inhibitory activity of the test compound (%) was determined.
`Cc1ccsc1/C=N/c1ccccc1C=Cc1n[nH]c2ccccc12` [Compound 160, (E)-N-{2-[2-(1H-indazol-3-yl)vinyl]phenyl}(3-methylthiophen-2-ylmethylene)amine] gave an inhibition at 10 µM of 98.4%.
`O=C1C2=C(CCC2)C(=O)N1c1ccccc1/C=C/c1n[nH]c2ccccc12` [Compound 210, (E)-2-{2-[2-(1H-indazol-3-yl)vinyl]phenyl}-5,6-dihydro-4H-cyclopenta[c]pyrrole-1,3-dione] gave an inhibition at 10 µM of 96.5%.
With `O=C1c2ccccc2C(=O)N1c1ccc(F)cc1/C=C/c1n[nH]c2ccccc12` [Compound 250, (E)-2-{4-fluoro-2-[2-(1H-indazol-3-yl)vinyl]phenyl}isoindole-1,3-dione] the inhibition at 10 µM was 98.9%.
Molecule `O=C(Nc1ccccc1/C=C/c1n[nH]c2ccccc12)c1ccccc1[N+](=O)[O-]` [Compound 74, (E)-N-{2-[2-(1H-indazol-3-yl)vinyl]phenyl}-2-nitrobenzamide] has an inhibition at 10 µM of 97.6%.
With `O=C(O)c1csc(Nc2ccccc2/C=C/c2n[nH]c3ccccc23)n1` [Compound 170, (E)-2-{2-[2-(1H-indazol-3-yl)vinyl]phenylamino}thiazole-4-carboxylic acid] the inhibition at 10 µM was 69.8%.
For `O=C1c2cccc(F)c2C(=O)N1c1ccccc1/C=C/c1n[nH]c2ccccc12` [Compound 199, (E)-4-fluoro-2-{2-[2-(1H-indazol-3-yl)vinyl]phenyl}isoindole-1,3-dione], the inhibition at 10 µM was 99.4%.
Molecule `C(=C\c1n[nH]c2ccccc12)/c1ccccc1NCc1ccccc1` [Compound 26, (E)-N-benzyl-N-{2-[2-(1H-indazol-3-yl)vinyl]phenyl}amine] has an inhibition at 10 µM of 67.8%.
For `CN1CCN(C(=O)c2ccc(/C=C/c3n[nH]c4ccccc34)c(N3C(=O)c4ccccc4C3=O)c2)CC1` [Compound 287], the “inhibitory activity (%) at 10 μmol/L” value was 97.1%.
`O=C(Nc1ccccc1/C=C/c1n[nH]c2ccccc12)c1cc2ccccc2o1` [Compound 49, (E)-N-{2-[2-(1H-indazol-3-yl)vinyl]phenyl}benzofuran-2-carboxamide] showed an inhibition at 10 µM of 103%.
With `O=C1c2ccsc2C(=O)N1c1ccccc1/C=C/c1n[nH]c2ccccc12` [Compound 209, (E)-5-{2-[2-(1H-indazol-3-yl)vinyl]phenyl}thieno[2,3-c]pyrrole-4,6-dione] the inhibition at 10 µM was 99.5%.
Molecule `OCc1nc(-c2ccccc2/C=C/c2n[nH]c3ccccc23)no1` [Compound 179, (E)-3-{2-[2-(1H-indazol-3-yl)vinyl]phenyl}[1,2,4]oxadiazol-5-ylmethanol] has an inhibition at 10 µM of 99.6%.
`O=C1c2ccc(Cl)cc2C(=O)N1c1ccccc1/C=C/c1n[nH]c2ccccc12` [Compound 196, (E)-5-chloro-2-{2-[2-(1H-indazol-3-yl)vinyl]phenyl}isoindole-1,3-dione] showed an inhibition at 10 µM of 99.8%.
`Cc1oncc1C(=O)Nc1ccccc1/C=C/c1n[nH]c2ccccc12` [Compound 72, (E)-N-{2-[2-(1H-indazol-3-yl)vinyl]phenyl}-5-methylisoxazole-4-carboxamide] was tested, and the inhibition at 10 µM was 82.7%.
Work on `COc1ccccc1/C=C/c1n[nH]c2ccccc12` [Compound 135, (E)-3-[2-(2-methoxyphenyl)vinyl]-1H-indazole] yielded an inhibition at 10 µM of 86.6%.
For `O=C1c2ccccc2C(=O)N1c1cc(Cl)ccc1/C=C/c1n[nH]c2ccccc12` [Compound 258, (E)-2-{5-chloro-2-[2-(1H-indazol-3-yl)vinyl]phenyl}isoindole-1,3-dione], the inhibition at 10 µM was 100%.
`O=C1c2ccncc2C(=O)N1c1ccccc1/C=C/c1n[nH]c2ccccc12` [Compound 198, (E)-2-{2-[2-(1H-indazol-3-yl)vinyl]phenyl}pyrrolo[3,4-c]pyridine-1,3-dione hydrochloride] gave an inhibition at 10 µM of 87.2%.
With `O=C(Nc1nc[nH]n1)c1ccccc1/C=C/c1n[nH]c2ccccc12` [Compound 139, (E)-2-[2-(1H-indazol-3-yl)vinyl]-N-(1H-[1,2,4]triazol-3-yl)benzamide] the inhibition at 10 µM was 93.9%.
In the case of `C(=Cc1n[nH]c2ccccc12)c1ccccc1Nc1cnccn1` [Compound 155, N-{2-[2-(1H-indazol-3-yl)vinyl]phenyl}-2-pyrazylamine], the “inhibitory activity (%) at 10 μmol/L” value is reported as 97.9%.
Work on `CN(C)CCN(C)Cc1ccn(-c2ccccc2/C=C/c2n[nH]c3ccccc23)c1` [Compound 188, (E)-N-(1-{2-[2-(1H-indazol-3-yl)vinyl]phenyl}-1H-pyrrol-3-ylmethyl)-N,N′,N′-trimethylethane-1,2-diamine] yielded an inhibition at 10 µM of 99.4%.
`OCCNCc1ccn(-c2ccccc2/C=C/c2n[nH]c3ccccc23)c1` [Compound 187, (E)-2-(1-{2-[2-(1H-indazol-3-yl)vinyl]phenyl}-1H-pyrrol-3-ylmethylamino)ethanol] was tested, and the inhibition at 10 µM was 98.2%.
`O=C1CCCN1c1ccccc1/C=C/c1n[nH]c2ccccc12` [Compound 208, (E)-1-{2-[2-(1H-indazol-3-yl)vinyl]phenyl}pyrrolidin-2-one] gave an inhibition at 10 µM of 96.1%.
`O=C1CNC(=O)N1c1ccccc1/C=C/c1n[nH]c2ccccc12` [Compound 212, (E)-3-{2-[2-(1H-indazol-3-yl)vinyl]phenyl}imidazolidine-2,4-dione] was tested, and the inhibition at 10 µM was 83.6%.
`Cc1cc(C(=O)Nc2ccccc2/C=C/c2n[nH]c3ccccc23)ccc1[N+](=O)[O-]` [Compound 157, (E)-N-{2-[2-(1H-indazol-3-yl)vinyl]phenyl}-3-methyl-4-nitrobenzamide] gave an inhibition at 10 µM of 96%.
`Cc1csc(NC(=O)c2ccccc2/C=C/c2n[nH]c3ccccc23)n1` [Compound 143, (E)-2-[2-(1H-indazol-3-yl)vinyl]-N-(4-methylthiazol-2-yl)benzamide] gave an inhibition at 10 µM of 94.9%.
`Cc1c(C(=O)Nc2ccccc2/C=C/c2n[nH]c3ccccc23)sc2ccccc12` [Compound 351, (E)-{2-[2-(1H-indazol-3-yl)vinyl]phenyl}-3-methylbenzo[b]thiophene-2-carboxamide] was tested, and the “inhibitory activity (%) at 10 μmol/L” value was 99.1%.
Molecule `CCOC(=O)c1cnc(Nc2ccccc2/C=C/c2n[nH]c3ccccc23)s1` [Compound 165, (E)-2-{2-[2-(1H-indazol-3-yl)vinyl]phenylamino}thiazole-5-carboxylic acid ethylester] has an inhibition at 10 µM of 93.8%.
Molecule `O=Cc1ccn(-c2ccccc2/C=C/c2n[nH]c3ccccc23)c1` [Compound 167, (E)-1-{2-[2-(1H-indazol-3-yl)vinyl]phenyl}-1H-pyrrole-3-carbaldehyde] has an inhibition at 10 µM of 94.1%.
`OCc1csc(Nc2ccccc2/C=C/c2n[nH]c3ccccc23)n1` [Compound 173, (E)-2-{2-[2-(1H-indazol-3-yl)vinyl]phenylamino}thiazole-4-methanol] gave an inhibition at 10 µM of 97.8%.
In the case of `OCCCc1nc(-c2ccccc2/C=C/c2n[nH]c3ccccc23)no1` [Compound 180, (E)-3-(3-{2-[2-(1H-indazol-3-yl)vinyl]phenyl}[1,2,4]oxadiazol-5-yl)propan-1-ol], the inhibition at 10 µM is reported as 98.1%.
With `O=C(Nc1cc(Cl)ccc1/C=C/c1n[nH]c2ccccc12)c1cccs1` [Compound 257, (E)-{5-chloro-2-[2-(1H-indazol-3-yl)vinyl]phenyl}thiophene-2-carboxamide] the “inhibitory activity (%) at 10 μmol/L” value was 101.8%.
Molecule `CN(C)C(=O)c1ccc(/C=C/c2n[nH]c3ccccc23)c(N2C(=O)c3ccccc3C2=O)c1` [Compound 285, (E)-3-(1,3-dioxo-1,3-dihydroisoindol-2-yl)-4-[2-(1H-indazol-3-yl)vinyl]-N,N-dimethylbenzamide] has an inhibition at 10 µM of 99%.
`CS(=O)(=O)c1ccc(C(=O)Nc2ccccc2/C=C/c2n[nH]c3ccccc23)s1` [Compound 354, (E)-N-{2-[2-(1H-indazol-3-yl)vinyl]phenyl}-5-(methylsulfonyl)thiophene-2-carboxamide] gave an inhibition at 10 µM of 97.1%.
Work on `C(=C\c1n[nH]c2ccccc12)/c1ccccc1-n1ccc(CN2CCOCC2)c1` [Compound 182, (E)-3-{2-[2-(3-morpholin-4-ylmethylpyrrol-1-yl)phenyl]vinyl}-1H-indazole] yielded an inhibition at 10 µM of 97.9%.

Same assay, conditions: test compound 10 μmol/L
Work on `Cn1cccc1C(=O)Nc1cc(C(=O)N2CCOCC2)ccc1/C=C/c1n[nH]c2ccccc12` [Compound 123, (E)-N-{2-[2-(1H-indazol-3-yl)vinyl]-5-(morpholin-4-ylcarbonyl)phenyl}-1-methylpyrrole-2-carboxamide] yielded an inhibition at 10 µM of 95.9%.
With `CCN(CC)C(=O)c1ccc(/C=C/c2n[nH]c3ccccc23)c(NC(=O)c2sccc2C)c1.Cl` [Compound 124, (E)-N-{5-(N,N-diethylcarbamoyl)-2-[2-(1H-indazol-3-yl)vinyl]phenyl}-3-methylthiophene-2-carboxamide hydrochloride] the “inhibitory activity (%) at 10 μmol/L” value was 98.9%.
`COCc1ccc(/C=C/c2n[nH]c3ccccc23)c(NC(=O)c2sccc2C)c1` [Compound 121, (E)-N-{2-[2-(1H-indazol-3-yl)vinyl]-5-(methoxymethyl)phenyl}-3-methylthiophene-2-carboxamide] was tested, and the inhibition at 10 µM was 98.6%.
With `COc1cccc(/C=C/c2n[nH]c3ccccc23)c1N` [Compound 93, (E)-2-[2-(1H-indazol-3-yl)vinyl]-6-methoxyphenylamine] the inhibition at 10 µM was 70.6%.
